Assay results published in ChEMBL document CHEMBL5214916, “Enzyme inhibition as a potential therapeutic strategy to treat COVID-19 infection” (Bioorg Med Chem, 2021).

How the values were obtained:
[1] = target: T1, Angiotensin-converting enzyme (Homo sapiens, UniProt P12821); experiment: Inhibition of recombinant human ACE assessed as maximum inhibition using Mca-RPGFSAFK (Dnp)-OH as substrate by fluorescence plate reader assay relative to control
[2] = target: T2, Angiotensin-converting enzyme 2 (Homo sapiens, UniProt Q9BYF1); experiment: Inhibition of recombinant human ACE2 assessed as maximum inhibition using 7- Mca-YVADAPK (Dnp) as substrate by fluorescence plate reader assay relative to control
Target sequence in this assay (Q9BYF1 18-805 limits assumed): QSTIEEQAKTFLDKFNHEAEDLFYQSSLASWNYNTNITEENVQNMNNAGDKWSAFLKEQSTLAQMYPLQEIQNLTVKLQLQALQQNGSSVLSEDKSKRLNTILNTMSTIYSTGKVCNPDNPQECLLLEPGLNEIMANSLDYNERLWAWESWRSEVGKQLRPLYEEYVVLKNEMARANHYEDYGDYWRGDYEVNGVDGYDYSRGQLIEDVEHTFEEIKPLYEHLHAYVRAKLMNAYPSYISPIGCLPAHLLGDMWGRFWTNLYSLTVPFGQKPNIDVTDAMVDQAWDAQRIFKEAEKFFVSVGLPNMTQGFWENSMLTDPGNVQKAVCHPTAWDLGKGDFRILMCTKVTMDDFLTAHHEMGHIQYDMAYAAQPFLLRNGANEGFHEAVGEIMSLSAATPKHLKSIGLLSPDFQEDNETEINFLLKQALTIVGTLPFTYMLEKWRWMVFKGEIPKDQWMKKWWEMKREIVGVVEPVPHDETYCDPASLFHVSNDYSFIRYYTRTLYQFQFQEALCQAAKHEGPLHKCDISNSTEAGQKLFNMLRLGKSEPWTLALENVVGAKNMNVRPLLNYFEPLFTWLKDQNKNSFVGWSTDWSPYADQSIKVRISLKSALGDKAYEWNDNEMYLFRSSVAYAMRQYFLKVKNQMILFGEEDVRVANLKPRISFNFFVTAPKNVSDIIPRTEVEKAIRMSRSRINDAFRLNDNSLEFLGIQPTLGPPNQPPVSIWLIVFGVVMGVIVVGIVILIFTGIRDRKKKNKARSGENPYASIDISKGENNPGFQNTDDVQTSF

[3] = target: T1, Angiotensin-converting enzyme; experiment: Inhibition of recombinant human ACE using Mca-RPGFSAFK (Dnp)- OH as substrate by fluorescence plate reader assay
[4] = target: T2, Angiotensin-converting enzyme 2; experiment: Inhibition of recombinant human ACE2 using 7-Mca-YVADAPK (Dnp) as substrate by fluorescence plate reader assay
Target sequence in this assay (Q9BYF1 whole entry): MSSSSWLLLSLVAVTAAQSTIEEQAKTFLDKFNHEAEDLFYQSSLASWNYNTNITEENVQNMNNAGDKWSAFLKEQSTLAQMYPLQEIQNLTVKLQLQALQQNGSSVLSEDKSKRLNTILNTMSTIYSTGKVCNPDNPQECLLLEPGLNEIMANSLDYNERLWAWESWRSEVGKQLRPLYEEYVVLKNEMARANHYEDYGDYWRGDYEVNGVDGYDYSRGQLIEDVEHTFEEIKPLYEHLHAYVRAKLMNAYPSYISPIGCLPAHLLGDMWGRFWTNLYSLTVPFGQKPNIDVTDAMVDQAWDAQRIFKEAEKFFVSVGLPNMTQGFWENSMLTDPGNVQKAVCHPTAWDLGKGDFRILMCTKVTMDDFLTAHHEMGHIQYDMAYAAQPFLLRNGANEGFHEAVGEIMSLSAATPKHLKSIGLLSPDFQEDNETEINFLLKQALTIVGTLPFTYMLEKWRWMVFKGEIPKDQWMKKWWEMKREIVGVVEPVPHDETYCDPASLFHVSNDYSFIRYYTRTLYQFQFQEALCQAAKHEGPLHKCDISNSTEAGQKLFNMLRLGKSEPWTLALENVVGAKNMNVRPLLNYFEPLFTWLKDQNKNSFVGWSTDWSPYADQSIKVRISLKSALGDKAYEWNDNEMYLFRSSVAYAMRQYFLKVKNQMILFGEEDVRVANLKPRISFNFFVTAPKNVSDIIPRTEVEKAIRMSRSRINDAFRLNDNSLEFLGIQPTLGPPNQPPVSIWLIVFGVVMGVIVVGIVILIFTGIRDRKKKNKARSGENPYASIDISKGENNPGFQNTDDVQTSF

[5] = target: T1, Angiotensin-converting enzyme; experiment: Inhibition of ACE in human MNCs assessed as maximum inhibition using substrate Mca-RPGFSAFK (Dnp)-OH as substrate by fluorescence plate reader assay relative to control; format: cell-based; conditions: Mononuclear cell line
[6] = target: T2, Angiotensin-converting enzyme 2; experiment: Inhibition of ACE2 in human MNCs assessed as maximum inhibition using 7- Mca-YVADAPK (Dnp) as substrate by fluorescence plate reader assay relative to control; format: cell-based; conditions: Mononuclear cell line
Target sequence in this assay (Q9BYF1 18-805 limits assumed): as the sequence (Q9BYF1 18-805 limits assumed) above

[7] = target: Transmembrane protease serine 2 (Homo sapiens, UniProt O15393); experiment: Inhibition of TMPRSS2 (unknown origin) expressed in Escherichia coli BL21 (DE3) using H-D cyclohexylalanine-Pro-Arg-AM as substrate by Dixon method
Sequence of Transmembrane protease serine 2 (O15393 1-255 limits assumed): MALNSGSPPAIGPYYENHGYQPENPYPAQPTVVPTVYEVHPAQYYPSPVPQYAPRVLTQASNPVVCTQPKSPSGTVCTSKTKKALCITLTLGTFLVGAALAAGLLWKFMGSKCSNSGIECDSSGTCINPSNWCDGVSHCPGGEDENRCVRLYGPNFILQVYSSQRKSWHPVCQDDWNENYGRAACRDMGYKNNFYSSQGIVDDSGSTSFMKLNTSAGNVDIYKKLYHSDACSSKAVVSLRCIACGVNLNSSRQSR
Sequence of Transmembrane protease serine 2 (O15393 256-492 limits assumed): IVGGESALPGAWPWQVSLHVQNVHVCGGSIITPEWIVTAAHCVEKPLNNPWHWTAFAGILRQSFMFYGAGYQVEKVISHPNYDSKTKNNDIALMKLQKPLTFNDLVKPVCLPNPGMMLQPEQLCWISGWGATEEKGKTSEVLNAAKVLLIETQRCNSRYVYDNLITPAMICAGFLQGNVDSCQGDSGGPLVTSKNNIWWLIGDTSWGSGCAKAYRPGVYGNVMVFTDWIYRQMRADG

Calu-3 = experiment: Cytotoxicity against human Calu-3 cells assessed as decrease in viability at 50 uM incubated for 48 hrs by MTT assay; format: toxicity, cell-based; conditions: calu-3, 48 h
Influenza A virus [8] = experiment: Antiviral activity against human pandemic influenza virus A/Aichi/2/68 (H3N2) infected in human Calu-3 cells assessed as fold decrease in viral titre at 10 uM incubated for 24 hrs by plaque assay; format: functional
Influenza A virus [9] = experiment: Antiviral activity against human pandemic influenza virus A/Aichi/2/68 (H3N2) infected in human Calu-3 cells assessed as fold decrease in viral titre at 50 uM incubated for 24 hrs by plaque assay; format: functional
Influenza A virus [10] = experiment: Antiviral activity against human pandemic influenza virus A/Hamburg/5/09 (H1N1) infected in human Calu-3 cells assessed as fold decrease in viral titre at 50 uM incubated for 24 hrs by plaque assay; format: functional
Influenza A virus [11] = experiment: Antiviral activity against human pandemic influenza virus A/Hamburg/5/09 (H1N1) infected in human Calu-3 cells assessed as fold decrease in viral titre at 10 uM incubated for 24 hrs by plaque assay; format: functional

T1 sequence (P12821 whole entry): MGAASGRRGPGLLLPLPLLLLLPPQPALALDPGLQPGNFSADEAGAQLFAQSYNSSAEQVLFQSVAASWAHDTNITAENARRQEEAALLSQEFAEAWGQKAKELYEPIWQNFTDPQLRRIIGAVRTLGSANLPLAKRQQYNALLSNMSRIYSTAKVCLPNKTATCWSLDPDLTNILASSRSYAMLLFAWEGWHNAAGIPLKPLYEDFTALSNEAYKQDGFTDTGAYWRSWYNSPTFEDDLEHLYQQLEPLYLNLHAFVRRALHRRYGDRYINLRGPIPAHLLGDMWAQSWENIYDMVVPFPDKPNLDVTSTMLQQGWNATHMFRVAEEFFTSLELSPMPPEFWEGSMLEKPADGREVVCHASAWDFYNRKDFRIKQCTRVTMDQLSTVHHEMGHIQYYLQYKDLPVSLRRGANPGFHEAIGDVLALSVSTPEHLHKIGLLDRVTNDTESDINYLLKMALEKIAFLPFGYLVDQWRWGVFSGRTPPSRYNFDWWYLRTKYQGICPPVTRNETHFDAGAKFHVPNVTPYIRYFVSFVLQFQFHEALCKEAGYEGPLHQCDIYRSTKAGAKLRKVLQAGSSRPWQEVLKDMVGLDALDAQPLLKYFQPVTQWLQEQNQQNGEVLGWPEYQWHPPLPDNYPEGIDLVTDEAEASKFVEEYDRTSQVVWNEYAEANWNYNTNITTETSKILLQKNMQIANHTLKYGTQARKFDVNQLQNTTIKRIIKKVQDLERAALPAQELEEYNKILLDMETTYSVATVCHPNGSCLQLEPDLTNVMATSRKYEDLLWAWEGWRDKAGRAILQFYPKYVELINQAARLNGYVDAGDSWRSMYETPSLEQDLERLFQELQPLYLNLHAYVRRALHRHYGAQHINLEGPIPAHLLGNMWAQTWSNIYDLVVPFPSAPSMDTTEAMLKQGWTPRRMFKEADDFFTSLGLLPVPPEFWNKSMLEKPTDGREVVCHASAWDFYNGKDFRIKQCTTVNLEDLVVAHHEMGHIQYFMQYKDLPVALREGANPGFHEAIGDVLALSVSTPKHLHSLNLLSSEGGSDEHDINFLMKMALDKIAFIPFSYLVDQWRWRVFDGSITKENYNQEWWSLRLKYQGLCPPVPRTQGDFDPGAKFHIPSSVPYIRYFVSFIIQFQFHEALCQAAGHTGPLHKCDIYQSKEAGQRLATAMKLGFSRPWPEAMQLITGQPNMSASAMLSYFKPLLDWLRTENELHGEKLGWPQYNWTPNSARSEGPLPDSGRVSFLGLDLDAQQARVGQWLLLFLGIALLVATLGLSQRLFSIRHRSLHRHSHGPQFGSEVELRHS

| Compound | Imax [1] [%] | Imax [2] [%] | Imax [5] [%] | Imax [6] [%] | Ki [7] [nM] | other results |
| --- | --- | --- | --- | --- | --- | --- |
| CC(C)C[C@H](N[C@@H](Cc1cncn1Cc1cc(Cl)cc(Cl)c1)C(=O)O)C(=O)O [ORE-1001] | 46 | 80 | 34 | 63 | – | pIC50 [3]: 5; pIC50 [4]: 8.01 |
| CC(C)CC(N[C@@H](Cc1cncn1Cc1cc(Cl)cc(Cl)c1)C(=O)O)C(=O)O (mixture of isomers) | 48 | 94 | 22 | 34 | – | IC50 [3]: 39800 nM; IC50 [4]: 3.16 nM |
| COc1ccc(-c2cccc(S(=O)(=O)N[C@@H](Cc3cccc(C(=N)N)c3)C(=O)N3CCC(NC(=O)NC4CCCCC4)CC3)c2)c(OC)c1 | – | – | – | – | 3 | Activity (Calu-3): 20% |
| N=C(N)c1cccc(C[C@H](NS(=O)(=O)c2cccc(-c3ccc(Cl)cc3Cl)c2)C(=O)N2CCC(NC(=O)NC3CCCCC3)CC2)c1 | – | – | – | – | 3 | – |
| N=C(N)c1cccc(C[C@H](NS(=O)(=O)c2cccc(-c3ccc(Cl)cc3Cl)c2)C(=O)N2CCC(CCN)CC2)c1 | – | – | – | – | 0.9 | fold change (FC) (Influenza A virus [8]): 100; fold change (FC) (Influenza A virus [9]): 100; fold change (FC) (Influenza A virus [10]): 100; fold change (FC) (Influenza A virus [11]): 10 |
| CNC(=O)NCCC1CCN(C(=O)[C@H](Cc2cccc(C(=N)N)c2)NS(=O)(=O)c2cccc(-c3ccc(Cl)cc3Cl)c2)CC1 | – | – | – | – | 3 | – |
| COc1ccc(-c2cccc(S(=O)(=O)N[C@@H](Cc3cccc(C(=N)N)c3)C(=O)N3CCC(CCN)CC3)c2)c(OC)c1 | – | – | – | – | 1 | – |
| CC(C)C[C@@H](N[C@@H](Cc1cncn1Cc1cc(Cl)cc(Cl)c1)C(=O)O)C(=O)O | 49 | 93 | 20 | 35 | – | IC50 [3]: 39800 nM; IC50 [4]: 1.26 nM |
| CNC(=O)NCCC1CCN(C(=O)[C@H](Cc2cccc(C(=N)N)c2)NS(=O)(=O)c2cccc(-c3ccc(OC)cc3OC)c2)CC1 | – | – | – | – | 3 | – |
| CNC(=O)CCCC1CCN(C(=O)[C@H](Cc2cccc(C(=N)N)c2)NS(=O)(=O)c2cccc(-c3ccc(Cl)cc3Cl)c2)CC1 | – | – | – | – | – | Activity (Calu-3): 20% |
